Test results taken from patent US4252788A, “Dental composition for preventing and inhibiting dental caries” (Toyo Seiyaku Kasei Co., Ltd., priority 1979, dated 1981).

Assays:
[1] = tested on: mice; experiment: LD50 in mice; format: in vivo
Text: Further, the dental composition of the present invention is useful from a viewpoint of toxicity since the molybdate compounds used in the present invention have toxicity as low as that of other medicaments commonly used for inhibition of dental caries.

[2] = Ability to inhibit decalcification of the hard tissue (dissolved calcium from human dentin powder in acid solution)
Method: The ability to inhibit decalcification of the hard tissue was estimated according to the method described in Nishino. Osaka University Shigaku Zasshi, Vol. 14, page 1 (1969). That is, firstly, a certain amount of human dentin powder was treated with a composition (aqueous solution of a molybdate compound) to be tested for certain minutes and then unbonded excess components were removed by washing with water to obtain a sample powder. Then, the sample powder was treated with an acid solution (decalcification) and the amount of calcium in the solution, which was dissolved in the solution by action of the acid, was determined (sample calcium content). Similarly, untreated dentin powder was added to an acid solution and the amount of calcium in the acid solution was determined (control calcium content). From these values, a inhibition rate of decalcification was calculated as follows: [formula]

[3] = In vivo inhibition of dental caries in rats on cariogenic diet inoculated with Streptococcus mutans; parameters: species or system Male Sprague-Dawley rats; details: for Average caries score (± S.E.), Dm (moderate dental caries) / Average caries score (± S.E.), Ds (slight dental caries) / Average caries score (± S.E.), Dx (extensive dental caries) / Inhibition rate of dental caries, Dm (moderate dental caries) / Inhibition rate of dental caries, Ds (slight dental caries) / Inhibition rate of dental caries, Dx (extensive dental caries): 8 weeks
Method: Further, the ability of the composition of the present invention to inhibit dental caries was tested in vivo as follows:
45 Male Sprague-Dawley rats (18 days old) were divided into three groups (15 rats/group). These rats were kept with the following cariogenic diet and deionized water during the test period (8 weeks).
0.2 ml of a culture broth, which was prepared by anaerobic cultivation of Streptococcus mutans in brain-heart-infusion broth at 37° C. for 24 hours, was orally administered to each rat once a day for 5 days. On the first, 7th, 14th, 21st, 28th and 35th days of the test period, 10% solution of (NH4)2 MoO2 F4 in deionized water (pH 7.5) was applied twice to mandibular molar of each rat of the first group with a cotton applicator and dried for 5 minutes. Likewise, 2% solution of NaF in deionized water (pH 3.6) was applied to each rat of the second group. As a control, mere deionized water was also applied to each rat of the third group. After 8 weeks, rats were sacrificed and mandibula of each rat was isolated and autoclaved at 121° C. for 5 minutes to remove gingiva and the like attached thereto. After drying, the severity of dental caries of each isolated mandibular molar was estimated with a caries score according to the method described in P. H. Keyes, J. Dent. Res., […], 1088-1099 (1958). In Tables 3 and 4, symbols of the severity of dental caries mean as follows:
Dm: moderate dental caries (dental caries extends to a quarter to three quarters part between enamel and dental pulp); and
Dx: extensive dental caries (dental caries extends to more than three quarters part between enamel and dental pulp).
The inhibition rate of dental caries is calculated as follows: [formula]

[4] = tested on: protease (collagenase or trypsin); experiment: Ability to inhibit digestion of the soft tissue (human decalcified dentin powder in opaque agar plate, clear zone with protease); format: biochemical; details: sodium fluoride
Method: The ability to inhibit digestion of the soft tissue was estimated according to the method described in Yanagida et al, Shonishikagaku Zasshi, Vol. 9, page 39 (1971). That is, various molybdate compounds (Na2 MoO2 F4, K2 MoO2 F4, (NH4)2 MoO2 F4, Na2 MoO4 or K2 MoO4) were dissolved in deionized water in various concentrations to obtain various compositions to be tested. A certain amount of human decalcified dentin powder was treated with each of the above prepared compositions for certain minutes and then unbonded excess components were removed by dialysis to obtain a sample powder. Then, an opaque agar plate was prepared from a mixture of agar and the sample powder, and a protease (collagenase or trypsin) was added to the plate. The inhibiting ability was estimated by observing whether a clear zone was formed on the plate or not (the clear zone is formed by dissolution of the powder with the enzyme, and the formation thereof means digestion of the soft tissue).

[5] = 0.5 hr decalcification, Mo 1%, pH 3
[6] = 0.5 hr decalcification, Mo 1%, pH 5
[7] = 1 hr decalcification, Mo 1%, pH 3
[8] = 1 hr decalcification, Mo 1%, pH 5
[9] = 3 hrs decalcification, Mo 1%, pH 3
[10] = 3 hrs decalcification, Mo 1%, pH 5
[11] = 5 hrs decalcification, Mo 1%, pH 3
[12] = 5 hrs decalcification, Mo 1%, pH 5
[13] = 1st group, 10% solution, pH 7.5
[14] = 0.5 hr decalcification, Mo 4%, pH 7
[15] = 1 hr decalcification, Mo 4%, pH 7
[16] = 3 hrs decalcification, Mo 4%, pH 7
[17] = 5 hrs decalcification, Mo 4%, pH 7

Row | Structure (SMILES) | Inhibition rate of decalcification [2, 5] [%] | Inhibition rate of decalcification [2, 6] [%] | Inhibition rate of decalcification [2, 7] [%] | Inhibition rate of decalcification [2, 8] [%] | Inhibition rate of decalcification [2, 9] [%] | Inhibition rate of decalcification [2, 10] [%] | Inhibition rate of decalcification [2, 11] [%] | Inhibition rate of decalcification [2, 12] [%] | Inhibition rate of decalcification [2, 14] [%] | Inhibition rate of decalcification [2, 15] [%] | Inhibition rate of decalcification [2, 16] [%] | Inhibition rate of decalcification [2, 17] [%] | also measured
1 | [NH4+].[NH4+].[O]=[Mo-2](=[O])([F])([F])([F])[F] [(NH4)2 MoO2 F4, ammonium dioxotetrafluoromolybdate] | 44.43 | 44.43 | 34.60 | 45.45 | 36.47 | 42.39 | 37.27 | 43.12 |  |  |  |  | LD50 (p.o.) [1]: 124 mg/kg; Average caries score (± S.E.), Dm (moderate dental caries) [3, 13]: 0.7 ± 0.2; Average caries score (± S.E.), Ds (slight dental caries) [3, 13]: 3.9 ± 0.6; Average caries score (± S.E.), Dx (extensive dental caries) [3, 13]: 0.2 ± 0.2; Inhibition rate of dental caries, Dm (moderate dental caries) [3, 13]: 82.9%; Inhibition rate of dental caries, Ds (slight dental caries) [3, 13]: 54.7%; Inhibition rate of dental caries, Dx (extensive dental caries) [3, 13]: 93.8%; Dental caries inhibitory effect (in words) ([3]; Tables 3 and 4): excellent dental caries inhibitory effect; Inhibition rate of dental caries compared with NaF (in words) ([3]; at any severity): extremely superior to that of the composition containing NaF; Inhibition of moderate and extensive dental caries (in words) ([3]; scores of Dm and Dx in Table 3): moderate and extensive dental caries are almost inhibited
2 | [K+].[K+].[O]=[Mo](=[O])([O-])[O-] [K2 MoO4, potassium orthomolybdate] |  |  |  |  |  |  |  |  | 36.30 | 38.64 | 43.55 | 36.24 | Inhibition rate of decalcification ([2]; 0.5 hr decalcification, Mo 4%, pH 3): 30.80%; Inhibition rate of decalcification ([2]; 1 hr decalcification, Mo 4%, pH 3): 33.33%; Inhibition rate of decalcification ([2]; 3 hrs decalcification, Mo 4%, pH 3): 35.42%; Inhibition rate of decalcification ([2]; 5 hrs decalcification, Mo 4%, pH 3): 34.52%
3 | [Na+].[Na+].[O]=[Mo-2](=[O])([F])([F])([F])[F] [Na2 MoO2 F4, sodium dioxotetrafluoromolybdate] | 63.30 | 62.39 | 64.65 | 50.51 | 66.67 | 49.59 | 66.28 | 49.43 |  |  |  |  | 
4 | [Na+].[Na+].[O]=[Mo](=[O])([O-])[O-] [Na2 MoO4, sodium orthomolybdate] |  |  |  |  |  |  |  |  | 44.04 | 42.17 | 33.80 | 35.42 | Inhibition rate of decalcification ([2]; 0.5 hr decalcification, Mo 4%, pH 5): 45.61%; Inhibition rate of decalcification ([2]; 1 hr decalcification, Mo 4%, pH 5): 47.60%; Inhibition rate of decalcification ([2]; 3 hrs decalcification, Mo 4%, pH 5): 49.25%; Inhibition rate of decalcification ([2]; 5 hrs decalcification, Mo 4%, pH 5): 47.82%
5 | O=P([O-])([O-])[O-].[Na+].[Na+].[Na+].[O]=[Mo](=[O])=[O].[O]=[Mo](=[O])=[O].[O]=[Mo](=[O])=[O].[O]=[Mo](=[O])=[O].[O]=[Mo](=[O])=[O].[O]=[Mo](=[O])=[O].[O]=[Mo](=[O])=[O].[O]=[Mo](=[O])=[O].[O]=[Mo](=[O])=[O].[O]=[Mo](=[O])=[O].[O]=[Mo](=[O])=[O].[O]=[Mo](=[O])=[O] [Na3 PO4 . 12MoO3, sodium phosphorus molybdate] | 42.20 | 49.90 | 42.42 | 33.21 | 41.11 | 30.78 | 40.94 | 30.85 |  |  |  |  | 
6 | [F-].[Na+] [NaF, sodium fluoride, reference compound] |  |  |  |  |  |  |  |  |  |  |  |  | Inhibition of protease digestion (in words) [4]: does not inhibit protease digestion of the soft tissue; Inhibition of protease digestion (in words) ([4]; listed as sodium fluoride): no inhibition of protease digestion; Inhibition rate of decalcification ([2]; 0.5 hr decalcification, reference NaF 2%, pH 5): 43.91%; Inhibition rate of decalcification ([2]; 0.5 hr decalcification, reference NaF 2%, pH 7): 41.94%; Inhibition rate of decalcification ([2]; 1 hr decalcification, reference NaF 2%, pH 5): 40.66%; Inhibition rate of decalcification ([2]; 1 hr decalcification, reference NaF 2%, pH 7): 36.36%; Inhibition rate of decalcification ([2]; 3 hrs decalcification, reference NaF 2%, pH 5): 47.97%; Inhibition rate of decalcification ([2]; 3 hrs decalcification, reference NaF 2%, pH 7): 36.59%; Inhibition rate of decalcification ([2]; 5 hrs decalcification, reference NaF 2%, pH 5): 38.76%; Inhibition rate of decalcification ([2]; 5 hrs decalcification, reference NaF 2%, pH 7): 36.93%; Average caries score (± S.E.), Dm (moderate dental caries) ([3]; 2nd group, 2% solution, pH 3.6): 2.3 ± 0.5; Average caries score (± S.E.), Ds (slight dental caries) ([3]; 2nd group, 2% solution, pH 3.6): 6.9 ± 0.8; Average caries score (± S.E.), Dx (extensive dental caries) ([3]; 2nd group, 2% solution, pH 3.6): 1.1 ± 0.4; Inhibition rate of dental caries, Dm (moderate dental caries) ([3]; 2nd group, 2% solution, pH 3.6): 43.9%; Inhibition rate of dental caries, Ds (slight dental caries) ([3]; 2nd group, 2% solution, pH 3.6): 19.8%; Inhibition rate of dental caries, Dx (extensive dental caries) ([3]; 2nd group, 2% solution, pH 3.6): 65.6%
7 | O.O=P(O)(O)O.[O]=[Mo](=[O])=[O].[O]=[Mo](=[O])=[O].[O]=[Mo](=[O])=[O].[O]=[Mo](=[O])=[O].[O]=[Mo](=[O])=[O].[O]=[Mo](=[O])=[O].[O]=[Mo](=[O])=[O].[O]=[Mo](=[O])=[O].[O]=[Mo](=[O])=[O].[O]=[Mo](=[O])=[O].[O]=[Mo](=[O])=[O].[O]=[Mo](=[O])=[O] [P2 O5 . 24MoO3, phosphomolybdic acid] | 58.32 |  | 52.02 |  | 54.24 |  | 43.12 |  | 45.22 | 44.82 | 47.39 | 44.61 | 
